This is an account of results in ChEMBL document CHEMBL1144431, “6-Hydroxy-1,2,3,4-tetrahydro-isoquinoline-3-carboxylic acid mimics active conformation of tyrosine in opioid peptides” (Bioorg Med Chem Lett, 2005).

Residues, ends and D or L forms follow the SMILES beside them.

The first assay deals with Delta-type opioid receptor (Rattus norvegicus, UniProt P33533). The assay can be described thus: Inhibition of [3H]naloxone binding to rat brain homogenate Opioid receptor delta.
Delta-type opioid receptor, sequence (P33533 whole entry): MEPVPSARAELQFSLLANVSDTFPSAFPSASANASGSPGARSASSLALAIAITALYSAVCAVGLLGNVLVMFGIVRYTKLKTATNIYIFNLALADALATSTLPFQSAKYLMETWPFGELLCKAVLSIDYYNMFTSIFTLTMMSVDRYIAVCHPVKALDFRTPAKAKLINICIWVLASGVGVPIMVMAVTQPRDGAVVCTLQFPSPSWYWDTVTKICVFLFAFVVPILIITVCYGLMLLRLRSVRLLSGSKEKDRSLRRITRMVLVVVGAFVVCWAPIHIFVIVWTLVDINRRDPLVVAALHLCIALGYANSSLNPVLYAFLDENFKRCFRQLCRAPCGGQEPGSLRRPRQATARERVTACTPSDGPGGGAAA
`C[C@@H](NC(=O)[C@@H](N)Cc1ccc(O)cc1)C(=O)N[C@@H](Cc1ccccc1)C(=O)N[C@@H](Cc1ccccc1)C(N)=O` (HELM PEPTIDE1{Y.[dA].F.F.[am]}$$$$V2.0): the Ki amounted to 1820 nM.

Compound `NC(=O)[C@H](Cc1ccccc1)NC(=O)[C@H](Cc1ccccc1)NC(=O)[C@@H]1CCCN1C(=O)[C@@H]1Cc2cc(O)ccc2CN1` registered a Ki above 10000 nM.

As to `C[C@@H](NC(=O)[C@@H]1Cc2ccc(O)cc2CN1)C(=O)N[C@@H](Cc1ccccc1)C(=O)NCC(=O)N[C@@H](Cc1ccc(O)cc1)C(=O)N1CCC[C@H]1C(=O)N[C@@H](CO)C(N)=O`, the Ki was above 10000 nM.

Compound `C[C@@H](NC(=O)[C@@H]1Cc2cc(O)ccc2CN1)C(=O)N[C@@H](Cc1ccccc1)C(=O)N[C@@H](Cc1ccccc1)C(N)=O` registered an inhibition constant Ki above 10000 nM.

As to `CC(C)[C@H](NC(=O)[C@H](CC(=O)O)NC(=O)[C@H](Cc1ccccc1)NC(=O)[C@@H](C)NC(=O)[C@@H]1Cc2ccc(O)cc2CN1)C(=O)N[C@H](C(=O)NCC(N)=O)C(C)C`, the Ki came to 304 nM.

`CC(C)[C@H](NC(=O)[C@H](CC(=O)O)NC(=O)[C@H](Cc1ccccc1)NC(=O)[C@@H](C)NC(=O)[C@@H]1Cc2cc(O)ccc2CN1)C(=O)N[C@H](C(=O)NCC(N)=O)C(C)C`: the Ki was 10.4 nM.

As for `C[C@@H](NC(=O)[C@@H]1Cc2cc(O)ccc2CN1)C(=O)N[C@@H](Cc1ccccc1)C(=O)NCC(=O)N[C@@H](Cc1ccc(O)cc1)C(=O)N1CCC[C@H]1C(=O)N[C@@H](CO)C(N)=O`, the Ki was above 10000 nM.

Regarding `CC(C)[C@H](NC(=O)[C@H](CC(=O)O)NC(=O)[C@H](Cc1ccccc1)NC(=O)[C@@H](C)NC(=O)[C@@H](N)Cc1ccc(O)cc1)C(=O)N[C@H](C(=O)NCC(N)=O)C(C)C` [DELTORPHIN C], affinity was put at a Ki of 0.73 nM.

The target of the next assay is Mu-type opioid receptor (Rattus norvegicus, UniProt P33535). The assay can be described thus: Inhibition of [3H]naloxone binding to rat brain homogenate Opioid receptor mu.
Mu-type opioid receptor, sequence (P33535 whole entry): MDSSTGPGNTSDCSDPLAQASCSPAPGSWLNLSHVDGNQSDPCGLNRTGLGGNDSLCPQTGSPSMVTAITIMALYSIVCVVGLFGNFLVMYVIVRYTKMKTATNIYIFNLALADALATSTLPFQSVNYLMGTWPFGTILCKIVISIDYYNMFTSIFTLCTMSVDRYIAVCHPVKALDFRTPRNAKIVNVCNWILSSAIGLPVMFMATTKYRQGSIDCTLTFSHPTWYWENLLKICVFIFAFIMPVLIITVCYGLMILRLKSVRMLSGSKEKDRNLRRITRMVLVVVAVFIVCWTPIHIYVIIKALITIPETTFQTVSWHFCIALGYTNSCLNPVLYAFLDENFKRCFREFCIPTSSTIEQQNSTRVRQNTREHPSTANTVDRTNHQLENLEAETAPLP
The compound `NC(=O)[C@H](Cc1ccccc1)NC(=O)[C@H](Cc1ccccc1)NC(=O)[C@@H]1CCCN1C(=O)[C@@H]1Cc2cc(O)ccc2CN1` gave a Ki of 216 nM.

`C[C@@H](NC(=O)[C@@H]1Cc2ccc(O)cc2CN1)C(=O)N[C@@H](Cc1ccccc1)C(=O)NCC(=O)N[C@@H](Cc1ccc(O)cc1)C(=O)N1CCC[C@H]1C(=O)N[C@@H](CO)C(N)=O` yielded a Ki of 1620 nM.

As to `C[C@@H](NC(=O)[C@@H](N)Cc1ccc(O)cc1)C(=O)N[C@@H](Cc1ccccc1)C(=O)NCC(=O)N[C@@H](Cc1ccc(O)cc1)C(=O)N1CCC[C@H]1C(=O)N[C@@H](CO)C(N)=O` [DERMORPHIN], the Ki was 2.4 nM.

`C[C@@H](NC(=O)[C@@H]1Cc2cc(O)ccc2CN1)C(=O)N[C@@H](Cc1ccccc1)C(=O)N[C@@H](Cc1ccccc1)C(N)=O` registered a Ki of 57.8 nM.

Regarding `CC(C)[C@H](NC(=O)[C@H](CC(=O)O)NC(=O)[C@H](Cc1ccccc1)NC(=O)[C@@H](C)NC(=O)[C@@H]1Cc2ccc(O)cc2CN1)C(=O)N[C@H](C(=O)NCC(N)=O)C(C)C`, the Ki is above 10000 nM.

In the case of `CC(C)[C@H](NC(=O)[C@H](CC(=O)O)NC(=O)[C@H](Cc1ccccc1)NC(=O)[C@@H](C)NC(=O)[C@@H]1Cc2cc(O)ccc2CN1)C(=O)N[C@H](C(=O)NCC(N)=O)C(C)C`, the Ki was above 10000 nM.

For the compound `C[C@@H](NC(=O)[C@@H]1Cc2cc(O)ccc2CN1)C(=O)N[C@@H](Cc1ccccc1)C(=O)NCC(=O)N[C@@H](Cc1ccc(O)cc1)C(=O)N1CCC[C@H]1C(=O)N[C@@H](CO)C(N)=O`, the Ki worked out at 253 nM.

`CC(C)[C@H](NC(=O)[C@H](CC(=O)O)NC(=O)[C@H](Cc1ccccc1)NC(=O)[C@@H](C)NC(=O)[C@@H](N)Cc1ccc(O)cc1)C(=O)N[C@H](C(=O)NCC(N)=O)C(C)C` [DELTORPHIN C] registered a Ki of 1700 nM. Compared with the last compound, the Ki is about 6.7-fold higher.

Broadly, the Ki is a dissociation constant, usually derived from enzyme kinetics or from competition with a known ligand. A higher Ki goes with weaker binding.
